What is called IC50 is the concentration needed to halve the response being measured. In general, Dmax refers to the greatest extent of degradation seen. The low end stands for a partial loss of target, the high end for a fuller loss of target.

Data on 14 compounds can be found in patent publication US12310975B2, “Modulators of BCL6 proteolysis and associated methods of use” (Arvinas Operations, Inc., priority 2019, dated 2025).

The target in assay [1] is T1, BCL6 (Homo sapiens (Human), UniProt P41182). The assay is described as follows: BCL6 TR-FRET assay (BCL6-Avitag-Biotin / BCoR-Cy5 peptide). The class given is binding. The settings on record: class symbols A-D; read-out: IC50 (nM)***. The procedure: Protein Synthesis. BCL6 protein was expressed by transforming Invitrogen One Shot cells with GS63525 pET24a-His-SUMO-TEV-BCLm-Avitag plasmid following manufacturer's instructions. In addition, biotin at a final concentration of 50 μM, and IPTG at a final concentration of 1 mM was added to the culture and incubated at room temperature shaking overnight.
Assay buffer A: 50 mM HEPES pH 7.5, 125 mM NaCl, 0.01% TritonX.
Assay buffer B (made fresh): buffer A+1 mM Glutathione (or 0.5 mM DTT).
Assay buffer C (made fresh): buffer B+0.03% BSA.
Black Proxy plates, 96 well.
15 μl final reaction volumes (BCoR-Cy5 100 nM, SA-Eu 2 nM, BCL6-avitag 2 nM).
[…] BCL6-Avitag-Biotin stock: made fresh by adding 2 μl of BCL6-Avitag-Biotin to 31.5 ml Buffer C.
1 mM BCoR-Cy5 peptide (LifeTein) stock in Dimethylformamide (DMF).
300 nM BCoR-Cy5 working stock: made fresh by adding 4.5 μl of the 1 mM BCoR-Cy5 peptide stock to 15 ml Buffer B.
10 μM Eu-Streptavidin (Lance Eu-W1024 Streptavidin, PerkinElmer) stock solution.
6 nM Eu-Streptavidin working stock: made fresh by adding 9 μl Eu-Streptavidin stock solution to 15 ml Buffer A.
Compounds were diluted to 10 mM. Twenty microliters of DMSO was aliquoted to each well of the microtiter plates. From the 10 mM compound stock, 8.7 ul was aliquoted to the 20 ul DMSO and 3-fold serial dilutions (12 pt 3-0.01 uM tritration plate, 96 well, 100% DMSO) performed. Five ul from the titration plate wells was aliquoted to 45 ul Buff C (Intermediate dilution plates, 10% DMSO).
Spot 1.5 μl compound titrations to 384-well plates in duplicate, and spot 3.5 μl [8.5 nM] BCL6-bio protein to each well. The plate was mix briefly, centrifuged, and incubated for 30 minutes at room temperature.
Mix 14 mls of BCoR-Cy5 [300 nM] and 14 mls [6 nM] Eu-Streptavidin. Spot 10 μl BCoR-Cy5/SA-Eu (1:1) mix to each well. The plates were incubated for 2 hours and then read on an Envision plate reader.
(In general: In TR-FRET formats the signal depends on donor and acceptor labels being close together.)

In assay [2] the target is T1, BCL6. The assay is described as follows: Immunofluorescence high content imaging of BCL6 degradation in T47D cells. The class given is cell-based. As to conditions: for Dmax: T47D, maximum, class symbols A-C; for DC50: class symbols A-D, read-out: EC50 (nM)*. Summed up: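 Read-out is BCL6 immunofluorescence quantified by high-content imaging (10×, 4 fields per well) of T47D breast cancer cells. Cells were exposed for 3 days to degrader in an 11-point, 3-fold serial dilution reaching a final top concentration of 0.1 or 1 μM.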

Consider `CC(=O)COc1cc2cc(Nc3nc(N4CCN(CC5CCN(c6ccc7c(c6)C(=O)N(C6CCC(=O)NC6=O)C7=O)CC5)CC4)ncc3Cl)ccc2n(C)c1=O` (stereo not drawn) [compound 148, 5-(4-((4-(5-chloro-4-((1-methyl-2-oxo-3-(2-oxopropoxy)-1,2-dihydroquinolin-6-yl)amino)pyrimidin-2-yl)piperazin-1-yl)methyl)piperidin-1-yl)-2-(2,6-dioxopiperidin-3-yl)isoindoline-1,3-dione], for which the IC50 on BCL6 [1] was less than 10 nM. Moreover, on BCL6 [2], the Dmax lay within 50 to 70% and the DC50 fell in the range of 10 to 50 nM.

As for `Cn1c(=O)n(CCC(C)(C)O)c2cc(Nc3nc(N4CCC(CN5CCN(c6ccc7c(c6)C(=O)N(C6CCC(=O)NC6=O)C7=O)CC5)CC4)ncc3Cl)ccc21` (stereo not drawn) [compound 149, 5-(4-((1-(5-chloro-4-((3-(3-hydroxy-3-methylbutyl)-1-methyl-2-oxo-2,3-dihydro-1H-benzo[d]imidazol-5-yl)amino)pyrimidin-2-yl)piperidin-4-yl)methyl)piperazin-1-yl)-2-(2,6-dioxopiperidin-3-yl)isoindoline-1,3-dione], on BCL6 [1], the IC50 is not below 100 nM. Further, at BCL6 [2], the DC50 was more than 100 nM.

Turning to `Cn1c(=O)ccc2cc(Nc3nc(N4CCC(CN5CCN(c6ccc7c(c6)C(=O)N(C6CCC(=O)NC6=O)C7=O)CC5)CC4)ncc3Cl)ccc21` (stereo not drawn) [compound 150, 5-(4-((1-(5-chloro-4-((1-methyl-2-oxo-1,2-dihydroquinolin-6-yl)amino)pyrimidin-2-yl)piperidin-4-yl)methyl)piperazin-1-yl)-2-(2,6-dioxopiperidin-3-yl)isoindoline-1,3-dione], the IC50 on BCL6 [1] is not below 100 nM. For the same compound, at BCL6 [2], the DC50 was more than 100 nM.

In the case of `CNC(=O)COc1cc2cc(Nc3nc(N4CCC(CN5CCN(c6ccc7c(c6)CN(C6CCC(=O)NC6=O)C7=O)CC5)CC4)ncc3Cl)ccc2n(C)c1=O` (stereo not drawn) [compound 151, 2-((6-((5-chloro-2-(4-((4-(2-(2,6-dioxopiperidin-3-yl)-1-oxoisoindolin-5-yl)piperazin-1-yl)methyl)piperidin-1-yl)pyrimidin-4-yl)amino)-1-methyl-2-oxo-1,2-dihydroquinolin-3-yl)oxy)-N-methylacetamide], the IC50 on BCL6 [1] is less than 10 nM. Moreover, on BCL6 [2], the Dmax is 50 to 70% and the DC50 was in the range of 10 to 50 nM.

Take `CC(=O)COc1cc2cc(Nc3nc(N4CCC(CN5CCN(c6ccc7c(c6)C(=O)N(C6CCC(=O)NC6=O)C7=O)CC5)CC4)ncc3Cl)ccc2n(C)c1=O` (stereo not drawn) [compound 152, 5-(4-((1-(5-chloro-4-((1-methyl-2-oxo-3-(2-oxopropoxy)-1,2-dihydroquinolin-6-yl)amino)pyrimidin-2-yl)piperidin-4-yl)methyl)piperazin-1-yl)-2-(2,6-dioxopiperidin-3-yl)isoindoline-1,3-dione]: at BCL6 [1], the half-maximal inhibitory concentration (IC50) lay within 50 to 100 nM. Further, at BCL6 [2], the Dmax was in the range of 50 to 70% and the DC50 was in the range of 10 to 50 nM.

`CC(=O)COc1cc2cc(Nc3nc(N4CCC(C(=O)N5CCN(c6ccc7c(c6)C(=O)N(C6CCC(=O)NC6=O)C7=O)CC5)CC4)ncc3Cl)ccc2n(C)c1=O` (stereo not drawn) [compound 153, 5-(4-(1-(5-chloro-4-((1-methyl-2-oxo-3-(2-oxopropoxy)-1,2-dihydroquinolin-6-yl)amino)pyrimidin-2-yl)piperidine-4-carbonyl)piperazin-1-yl)-2-(2,6-dioxopiperidin-3-yl)isoindoline-1,3-dione]: the IC50 at BCL6 [1] fell in the range of 50 to 100 nM. Besides, on BCL6 [2], the Dmax was not below 70% and the DC50 is less than 10 nM.

`CC(=O)COc1cc2cc(Nc3nc(N4CCC(CN5CCC(Oc6ccc7c(c6)C(=O)N(C6CCC(=O)NC6=O)C7=O)CC5)C4)ncc3Cl)ccc2n(C)c1=O` (stereo not drawn) [compound 154, 5-((1-((1-(5-chloro-4-((1-methyl-2-oxo-3-(2-oxopropoxy)-1,2-dihydroquinolin-6-yl)amino)pyrimidin-2-yl)pyrrolidin-3-yl)methyl)piperidin-4-yl)oxy)-2-(2,6-dioxopiperidin-3-yl)isoindoline-1,3-dione]: on BCL6 [1], the IC50 lay within 50 to 100 nM. Besides, at BCL6 [2], the Dmax is less than 50% and the DC50 lay in the range of 10 to 50 nM.

For the compound `CNC(=O)CCc1cc2cc(Nc3nc(N4CCC(CN5CCN(c6ccc7c(c6)C(=O)N(C6CCC(=O)NC6=O)C7=O)CC5)CC4)ncc3Cl)ccc2n(C)c1=O` (stereo not drawn) [compound 155, 3-(6-((5-chloro-2-(4-((4-(2-(2,6-dioxopiperidin-3-yl)-1,3-dioxoisoindolin-5-yl)piperazin-1-yl)methyl)piperidin-1-yl)pyrimidin-4-yl)amino)-1-methyl-2-oxo-1,2-dihydroquinolin-3-yl)-N-methylpropanamide], the IC50 at BCL6 [1] was not below 100 nM. Also, the DC50 on BCL6 [2] was more than 100 nM.

For `Cn1c(=O)cc(NC(C)(C)c2ncccn2)c2cc(Nc3nc(N4CCC(CN5CCN(c6ccc7c(c6)C(=O)N(C6CCC(=O)NC6=O)C7=O)CC5)CC4)ncc3Cl)ccc21` (stereo not drawn) [compound 156, 5-(4-((1-(5-chloro-4-((1-methyl-2-oxo-4-((2-(pyrimidin-2-yl)propan-2-yl)amino)-1,2-dihydroquinolin-6-yl)amino)pyrimidin-2-yl)piperidin-4-yl)methyl)piperazin-1-yl)-2-(2,6-dioxopiperidin-3-yl)isoindoline-1,3-dione], at BCL6 [1], the IC50 was not below 100 nM. Also, on BCL6 [2], the Dmax was less than 50% and the DC50 was more than 100 nM.

On to `CC(=O)COc1cc2cc(Nc3nc(N4CCC(N5CCC(N(C)CCOc6ccc7c(c6)CN(C6CCC(=O)NC6=O)C7=O)C5)CC4)ncc3Cl)ccc2n(C)c1=O` (stereo not drawn) [compound 157, 3-(5-(2-((1-(1-(5-chloro-4-((1-methyl-2-oxo-3-(2-oxopropoxy)-1,2-dihydroquinolin-6-yl)amino)pyrimidin-2-yl)piperidin-4-yl)pyrrolidin-3-yl) (methyl)amino)ethoxy)-1-oxoisoindolin-2-yl)piperidine-2,6-dione], for which the IC50 at BCL6 [1] was less than 10 nM. Moreover, on BCL6 [2], the Dmax was 50 to 70% and the DC50 lay in the range of 10 to 50 nM.

Take `CC(=O)COc1cc2cc(Nc3nc(N4CCN(C5CCN(CCCOc6ccc7c(c6)CN(C6CCC(=O)NC6=O)C7=O)C5)CC4)ncc3Cl)ccc2n(C)c1=O` (stereo not drawn) [compound 158, 3-(5-(3-(3-(4-(5-chloro-4-((1-methyl-2-oxo-3-(2-oxopropoxy)-1,2-dihydroquinolin-6-yl)amino)pyrimidin-2-yl)piperazin-1-yl)pyrrolidin-1-yl)propoxy)-1-oxoisoindolin-2-yl)piperidine-2,6-dione]: the IC50 at BCL6 [1] was less than 10 nM. In addition, at BCL6 [2], the Dmax is less than 50% and the DC50 lay within 10 to 50 nM.

With `CNC(=O)COc1cc2cc(Nc3nc(N4CCC(OCCCCOc5cc(-c6scnc6C)ccc5CNC(=O)[C@@H]5C[C@@H](O)CN5C(=O)C(c5cc(C)no5)C(C)C)CC4)ncc3Cl)ccc2n(C)c1=O` (stereo partly drawn) [compound 159, (2S,4R)-N-(2-(4-((1-(5-chloro-4-((1-methyl-3-(2-(methylamino)-2-oxoethoxy)-2-oxo-1,2-dihydroquinolin-6-yl)amino)pyrimidin-2-yl)piperidin-4-yl)oxy)butoxy)-4-(4-methylthiazol-5-yl)benzyl)-4-hydroxy-1-(3-methyl-2-(3-methylisoxazol-5-yl)butanoyl)pyrrolidine-2-carboxamide], on BCL6 [1], the IC50 lay within 10 to 50 nM. Besides, on BCL6 [2], the Dmax is less than 50% and the DC50 is more than 100 nM.

Take `CC(=O)COc1cc2cc(Nc3nc(N4CCN(C5CCN(c6ccc7c(c6)C(=O)N(C6CCC(=O)NC6=O)C7=O)CC5)CC4)ncc3Cl)ccc2n(C)c1=O` (stereo not drawn) [compound 160, 5-(4-(4-(5-chloro-4-((1-methyl-2-oxo-3-(2-oxopropoxy)-1,2-dihydroquinolin-6-yl)amino)pyrimidin-2-yl)piperazin-1-yl)piperidin-1-yl)-2-(2,6-dioxopiperidin-3-yl)isoindoline-1,3-dione]: the IC50 on BCL6 [1] is 10 to 50 nM. Moreover, at BCL6 [2], the Dmax lay in the range of 50 to 70% and the DC50 was 10 to 50 nM.

Take `CC(=O)COc1cc2cc(Nc3nc(N4CCN(C5CCCN(c6ccc7c(c6)C(=O)N(C6CCC(=O)NC6=O)C7=O)C5)CC4)ncc3Cl)ccc2n(C)c1=O` (stereo not drawn) [compound 161, 5-(3-(4-(5-chloro-4-((1-methyl-2-oxo-3-(2-oxopropoxy)-1,2-dihydroquinolin-6-yl)amino)pyrimidin-2-yl)piperazin-1-yl)piperidin-1-yl)-2-(2,6-dioxopiperidin-3-yl)isoindoline-1,3-dione]: at BCL6 [1], the IC50 lay in the range of 10 to 50 nM. Besides, at BCL6 [2], the Dmax is less than 50% and the DC50 lay within 10 to 50 nM.
